Data: BindingDB's records for doi:10.1016/j.bmc.2012.10.010 (National Research Center, 2012)

Molecular target: Urokinase-type plasminogen activator (Homo sapiens) (UniProt P00749)
Assay: Binding affinity to uPA

Row | SMILES | Ki [pM]
1 | N#Cc1cc(-c2ccccc2)n(-c2ccc(Br)cc2)c1N | 3
2 | N#Cc1cc(-c2ccccc2)n(-c2ccc(Cl)cc2)c1N | 3
3 | N#Cc1cc(-c2ccccc2)n(Cc2nc3ccccc3[nH]2)c1N | 1
